Holding throughout (format): functional
Conditions in all cases: Homo sapiens

One assay deals with U-251. Put plainly: The compound was evaluated for cytotoxicity against U251 CNS cancer cell line.
A further assay has as its system MDA-N. The assay can be described thus: The compound was evaluated for cytotoxicity against MDA-N breast cancer cell line.
The subject of the next assay is PC-3. The assay can be described thus: The compound was evaluated for cytotoxicity against PC-3 prostate cancer cell line.
The next assay has as its system LOX IMVI. The assay can be described thus: The compound was evaluated for cytotoxicity against LOX-IMVI melanoma cell line.
The test system of another assay is IGROV-1. Put plainly: The compound was evaluated for cytotoxicity against IGROV1 ovarian cancer cell line.
A further assay concerns MOLT-4. The assay can be described thus: The compound was evaluated for cytotoxicity against MOLT-4 leukemia cell line.
For a further assay, the system named is NCI-H322M. Put plainly: The compound was evaluated for cytotoxicity against NCI-H322M non-small cell lung cancer cell line.
The test system of another assay is HCT-116. The assay can be described thus: The compound was evaluated for cytotoxicity against HCT116 colon cancer cell line.
The next assay deals with CAKI-1. Put plainly: The compound was evaluated for cytotoxicity against CAKI-1 renal cancer cell line.

In general, GI50 refers to the concentration giving 50% growth inhibition.

With `Cc1c2ccncc2c(C)c2c1[nH]c1ccc(CNCCN(C)C)cc12`, the GI50 came to 280 nM in the assay on U-251; 280 nM with MDA-N; 380 nM in the assay with PC-3; 160 nM in the assay on LOX IMVI; 150 nM in the assay with IGROV-1; 100 nM with MOLT-4. The GI50 in the assay with NCI-H322M was found to be 250 nM; with HCT-116, 170 nM; in the assay with CAKI-1 it was 260 nM.
